From EP0515796A1, “5-Aminoacyl-5,10-dihydro-11H-dibenzo(b,e)(1,4)diazepin-11-ones, processes for their preparation, and their use as medicaments” (ARZNEIMITTELWERK DRESDEN GmbH, priority 1991, dated 1992)
Where a name gives a salt, the structure may show the parent alone. Read-outs that look alike come from different tables or passages of the source. Marks after values point to notes of the source that are not given here.

Key:
in vivo = format: in vivo; details: in vivo; for LD50: intravenous use according to b33, values in brackets = confidence range, read-out: akute Toxizität Ratte, LD50; for selectivity ratio: therapeutic breadth, read-out: Q LD50/ED50
CaCl2-Arrhythmie = assay: CaCl2-induced arrhythmia in the rat (antifibrillatory effect); format: in vivo, Ratte; details: for ED50: read-out: CaCl2-Arrhythmie Ratte, ED50
Ratte [1] = details: rat, values in brackets = confidence range, cited from earlier work
Ratte [2] = assay: in vivo; format: in vivo
[3] = rat, antifibrillatory effect, values in brackets = confidence range
[4] = rat LD50 / rat CaCl2-arrhythmia ED50

| Molecule | LD50 (in vivo; rat) [mg/kg] | ED50 (CaCl2-Arrhythmie; [3]) [mg/kg] | selectivity ratio (in vivo; [4]) | other results |
| --- | --- | --- | --- | --- |
| C=CC1CN2CCC1CC2C(O)c1ccnc2ccc(OC)cc12 (stereo not drawn) [Chinidin] | 48 | 2.7 | – | selectivity ratio (in vivo; rat, rat LD50 / rat CaCl2-arrhythmia ED50): 18 |
| CC(C)N(CCC(C(N)=O)(c1ccccc1)c1ccccn1)C(C)C (racemic) [Disopyramid] | – | – | – | selectivity ratio (in vivo; rat, worked out with the cited LD50 of m (male) rats): 55; selectivity ratio (in vivo; rat, worked out with the cited LD50 of w (female) rats): 50; akute Toxizität Ratte, LD50 (Ratte [1]; m (male), literature value from the Palpitin (R) brochure, Gedeon Richter): m 72 (60 - 80) * mg/kg; akute Toxizität Ratte, LD50 (Ratte [1]; w (female), literature value (footnote mark printed only on the m line)): w 66 (50 - 110) mg/kg; ED50 (CaCl2-Arrhythmie; Rattus norvegicus): 1.3 mg/kg |
| CN1C(=O)c2ccccc2N(C(=O)CCCCCNC2CCCCC2)c2ccccc21 [Beispiel 7, 5-(6-Cyclohexylamino-hexanoyl)-5,10-dihydro-10-methyl-11H-dibenzo/b,e//1,4/diazepin-11-on.HCl] | 32 | 0.025 | 1280 | – |
| 5-(6-Diethylamino-hexanoyl)-5,10-dihydro-10-methyl-11H-dibenzo/b,e//1,4/diazepin-11-on.HCl.0,5 H₂O [Beispiel 4] | – | – | – | akute Toxizität Ratte, LD50 (Ratte [2]; rat, intravenous use according to b33, values in brackets = confidence range): 78 (73 - 84) mg/kg; Q LD50/ED50 (Ratte [2]; therapeutic breadth, rat LD50 / rat CaCl2-arrhythmia ED50): 2364; CaCl2-Arrhythmie Ratte, ED50 (CaCl2-Arrhythmie; [3]): 0,033 (0,011 - 0,10) mg/kg |
| CN1C(=O)c2ccccc2N(C(=O)CCCCCNC2CCCCC2)c2ccc(Cl)cc21 [Beispiel 8, 8-Chlor-5-(6-cyclohexylamino-hexanoyl)-5,10-dihydro-10-methyl-11H-dibenzo/b,e//1,4/diazepin-11-on.HCl] | 35 | 0.33 | 106 | – |
| CCN(CC)CC(=O)Nc1c(C)cccc1C [Lidokain] | – | 3.1 | – | – |
